# Like-named read-outs stand apart in the source and are kept apart here.
# Columns and labels:
# [1] = test system: gA channel in DC18:1PC/n-decane bilayers; details: cited from earlier work; for Single channel: concentration at which the molecule double/half gA channel lifetime: standard bilayer-punch electrophysiological methods
# [2] = test system: gramicidin A (gA) channels in DC22:1PC lipid bilayer vesicles; assay: gramicidin-based stopped-flow fluorescence quench assay (Tl+ influx into ANTS-filled, gA-doped LUVs); format: biochemical, Bacillus brevis; details: for Flourescence: concentration at which the molecules double/half the rate of the fluorescence quenching: fitted stretched exponential, rate at 2 ms, DC22:1PC LUVs; for rate of quencher influx (rate of stretched exponential): 260 nM gA, mean±SD, n>10, control 36±6
# Procedure: 24 hours before fluorescence measurements, ANTS-filled liposomes were mixed 1:20 in S_Na_Buffer. For the portion of liposomes that are to be doped with gramicidin, the desired amount of gramicidins was added at this time. […] Gramicidin diluted in DMSO was used, but the added DMSO was kept to an absolute minimum (<0.1% of volume) as DMSO of >0.5% affects bilayer properties. The solution was stored at 12-13° C. in the dark.
# The modifier in question was diluted in DMSO. The same amount of DMSO was added to all samples, including control.
# For each condition: • 1. Use 1.5 mL of diluted ANTS-liposomes for each condition (compound, concentration). • 2. Add compound at the desired concentration and incubate for 10 min at 25° C. (keep in dark), or DMSO for controls. • 3. Record fluorescence, x8 repeats, with S_Na_Buffer (the first four should be removed due to mixing). • 4. Record fluorescence, x12 repeats, with S_Tl_Quencher (the first four should also be removed due to mixing).
# Generate fluorescent liposomes. […] 1,2-Dierucoyl-sn-Glycero-3-Phosphocholine lipids, from Avanti Polar Lipids (Alabaster, Ala.), were bought in a lipid/chloroform solution and used without further purification. For each batch of vesicles, the lipid/chloroform solution was dried under nitrogen and then further dried in a dessicator under vacuum overnight to fully remove the chloroform. The dried lipid film was rehydrated in 100 mM NaNO3, 25 mM ANTS, 10 mM HEPES at pH 7.0 at room temperature over night, volume was adjusted to give a 10 mM lipid concentration. The suspension was then sonicated in a low power sonicator for 1 min, subjected to 5-6 freeze thaw cycles and extruded 21 times, at room temperature, using Avanti mini-extruder, Avanti Polar Lipids (Alabaster, Ala.), and a 0.1 μm Polycarbonate Membrane filter. External ANTS was removed by filtering though a PD-10 Desalting column, GE Healthcare (Piscataway, N.J.). Prepared ANTS-LUV stock was stored at 12-13° C. in the dark for a maximum of seven days. Before the fluorescence experiments ANTS-LUV stock was diluted 1:20 with 140 mM NaNO3, 10 mM HEPES, pH 7.0 buffer. For the portion of vesicles to be doped with gA the desired amount of gramicidin from Bacillus aneurinolyticus, Sigma Chemical Co. (St. Louis, Mo.), diluted in dimethylsulfoxide (DMSO) was added and incubated for 24 hours at 12-13° C. in the dark.
# The final DMSO concentrations were kept consistent for all samples and under 0.5% with the exception of when DMSO was tested, then listed amounts where used and no DMSO was added to controls.
# The fluorescence was measured using a SX.20 Stopped-Flow Spectrometer (Applied Photophysics, Leatherhead, UK), with a 150-W Xenon lamp, a two sample rapid mixing unit with machine dead time˜1.2 ms and a thermostatting water bath set to 25° C. The samples were excited at X=352 nm and fluorescence was recorded though λ=455 nm high pass filter with Pro-Data control software from Applied Photophysics, sampling 5000 points a second. For each sample at least 10 repeated mixing trials were measured, from two or more vesicle preparations. Each repeat was separately analyzed using MATLAB v7.4, The MathWorks, Inc (Natick, Mass.). The time course of fluorescence quenching was normalized to the average fluorescence without quencher, for that particular sample, and the first 2-100 ms of the time course was fitted with a stretched exponential. The initial influx rate is quantified as the rate of the stretched exponential at 2 ms.
# [3] = biological target: Shaker potassium channel (Drosophila melanogaster, UniProt P08510); details: cited from earlier work
# Chain of Shaker potassium channel (P08510 whole entry): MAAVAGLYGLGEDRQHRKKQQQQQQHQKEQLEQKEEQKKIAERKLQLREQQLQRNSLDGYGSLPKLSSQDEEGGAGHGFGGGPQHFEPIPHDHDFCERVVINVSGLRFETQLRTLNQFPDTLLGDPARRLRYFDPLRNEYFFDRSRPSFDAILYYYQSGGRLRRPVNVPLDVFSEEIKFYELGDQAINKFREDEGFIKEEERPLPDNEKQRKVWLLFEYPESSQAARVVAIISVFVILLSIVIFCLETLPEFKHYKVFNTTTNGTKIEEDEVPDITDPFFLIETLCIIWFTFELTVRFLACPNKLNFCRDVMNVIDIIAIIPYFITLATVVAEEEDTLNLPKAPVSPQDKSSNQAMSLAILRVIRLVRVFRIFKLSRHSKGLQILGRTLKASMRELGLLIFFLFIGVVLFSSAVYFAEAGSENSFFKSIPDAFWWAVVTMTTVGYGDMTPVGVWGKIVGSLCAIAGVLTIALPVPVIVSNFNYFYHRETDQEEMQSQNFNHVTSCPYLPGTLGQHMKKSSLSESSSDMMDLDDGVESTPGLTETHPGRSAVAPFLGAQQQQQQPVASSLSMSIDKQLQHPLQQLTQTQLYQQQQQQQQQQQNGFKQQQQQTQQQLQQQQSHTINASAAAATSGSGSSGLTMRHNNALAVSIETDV
Compound,Single channel: concentration at which the molecule double/half gA channel lifetime [1],Flourescence: concentration at which the molecules double/half the rate of the fluorescence quenching [2],also measured
OC(c1cc(C(F)(F)F)nc2c(C(F)(F)F)cccc12)C1CCCCN1 (centres unmarked) [Mefloquine],6 µM,37,gA channel frequency ([1]; single-channel electrophysiology): decreases
COc1cc(CNC(=O)CCCC/C=C/C(C)C)ccc1O [Capsaicin],25 µM,21,"rate of quencher influx (rate of stretched exponential) ([2]; 10 μM capsaicin): 69±6; rate of quencher influx (rate of stretched exponential) ([2]; 30 μM capsaicin): 85±8; rate of quencher influx (rate of stretched exponential) ([2]; 90 μM capsaicin): 247±27; rate of fluorescence quenching (Tl+ influx) in the presence of gramicidin ([2]; 10, 30, 90 μM, concentration dependent): increased"
O=c1c(-c2ccc(O)cc2)coc2cc(O)cc(O)c12 [Genistein],25 µM,22,–
Oc1cc2c(cc1O)CN(C(=S)NCCc1ccc(Cl)cc1)CCC2 [Capsazepine],4 µM,16,–
C[S+](C)[O-] [Dimethyl sulfoxide],–,"340,000","Single channel: concentration at which the molecule double/half gA channel lifetime ([1]; in µM): >410,000; amount that affects bilayer properties ([2]; % of volume): > 0.5%"
NCCc1c(SSc2[nH]c3cc(Br)ccc3c2CCN)[nH]c2cc(Br)ccc12 [BrMT],–,–,"effect on lipid bilayer properties (gA channel activity, stopped-flow) ([2]; stopped-flow experiments): altered lipid bilayer properties; Shaker potassium channel activation [3]: slows"
O=c1c(-c2ccc(O)cc2)coc2cc(O[C@@H]3O[C@H](CO)[C@@H](O)[C@H](O)[C@H]3O)cc(O)c12 [Genistin],>>30,910,–
Triton X-100,9 µM,13,–
(−)-epigallocatechin gallate,0.25 µM,12,effect on gA channel conductance ([1]; single-channel): causes conductance flickers or sub-conductance states
CCCCCCCCO[C@@H]1O[C@H](CO)[C@@H](O)[C@H](O)[C@H]1O [β-octylglucoside],270 µM,325,–
[Gd+3] [Gd^3+],> 30 µM,<1000,–

# From patent US8901042B2, “High throughput screen for measuring membrane effects” (Cornell University, priority 2009, dated 2014)
